# Results reported in patent US9212146B2, “Substituted pyridazinones for the treatment of tumors” (SHANGHAI INSTITUTE OF MATERIA MEDICA, CHINESE ACADEMY OF …, priority 2008, dated 2015).
# System: human hepatoma cell line Bel-7402
# Experiment: SRB proliferation assay, Bel-7402
# Type: cell-based
# Settings: BEL-7402 cultivated in vitro, 72 hours, given as bounds, read-out: The Inhibition Activities for Human Liver Cancer Cells BEL-7402 (IC50)
# Procedure: Protocol: the antineoplasmic activities in vitro of the compounds were assayed by a Sulforhodamine B (SRB) protocol. Tumor cells were cultivated at 37 under 5% CO2 in a RPMI 1640 medium or a DMEM medium (Gibco) containing 10% fetal bovine serum. Tumor cells were inoculated on a 96-well plate with a concentration of 0.4-1.0×10^4 cells per well according to the cell types. 24 hours later, the target compounds diluted 10 times were added, each compound having at least 5 concentrations. After treated by the compounds for 72 hours, the culture media were discarded, and the cells were fixed by 10% cold trichloroacetic acid, and then stained by Sulforhodamine B (SRB) solution. The uncombined SRB was washed off, and the SRB combined with protein was dissolved with Tris. OD values were recorded at 515 nm on an ELISA Reader, and the cell growth inhibition rate was calculated according to following equation: Inhibition rate=(ODcontrol−ODexperimental)/ODcontrol×100%
# IC50 (50% inhibitory concentration) was calculated by using Logit method based on the inhibition rates at various concentration, and the results are shown in tables 1 and 2.
# The following cell lines were used: human hepatocarcinoma cell line […]; ovarian cancer cell line SK-OV-3; human breast cancer cell line MDA-MB-231; human renal carcinoma cell line A498; colon adenocarcinoma cell line HT-29; non-small cell lung cancer cell line NCI-H460; lung adenocarcinoma cell line A549; human colon cancer cell line SW-620; human hepatoma cell line Bel-7402; human breast carcinoma cell line SK-BR-3; and human umbilical vein endothelial cells (HUVEC).
row,Structure (SMILES),IC50 [nM]
1,COc1ccc(-c2ccc(=O)[nH]n2)cc1C(F)(F)F [YHHU-546],< 100
2,O=c1ccc(-c2ccc(NC3CCCCC3)c(C(F)(F)F)c2)n[nH]1 [YHHU-715],< 10000
3,O=c1ccc(-c2ccc(NC3CCCCC3)c(C(F)(F)F)c2)n[nH]1 [YHHU-757],< 10
4,COc1ccc(-c2ccc(=O)[nH]n2)cc1C(F)(F)F [YHHU-762],< 10

# Same assay, conditions: Homo sapiens, BEL-7402 cultivated in vitro, 72 hours, given as bounds, read-out: The Inhibition Activities for Human Liver Cancer Cells BEL-7402 (IC50)
row,Structure (SMILES),IC50 [nM]
1,CC1CN1c1ccc(-c2ccc(=O)[nH]n2)cc1C(F)(F)F (stereo not shown) [YHHU-748],< 10
2,O=c1ccc(-c2ccc(OCCN3CC3)c(C(F)(F)F)c2)n[nH]1 [YHHU-771],< 100

# Same assay, conditions: Homo sapiens, Bel-7402, 72 h, BEL-7402 cultivated in vitro, given as bounds, read-out: The Inhibition Activities for Human Liver Cancer Cells BEL-7402 (IC50)
row,Structure (SMILES),IC50 [nM]
1,CN(C)COc1ccc(-c2ccc(=O)[nH]n2)cc1C(F)(F)F [YHHU-501],< 100
2,CC(C)C(Oc1ccc(-c2ccc(=O)[nH]n2)cc1C(F)(F)F)C(C)C [YHHU-502],< 100
3,O=c1ccc(-c2ccc(OC3CCCC3)c(C(F)(F)F)c2)n[nH]1 [YHHU-503],< 100
4,CCOC(=O)CSc1ccc(-c2ccc(=O)[nH]n2)cc1C(F)(F)F [YHHU-532],< 100
5,O=c1ccc(-c2ccc(CO)c(C(F)(F)F)c2)n[nH]1 [YHHU-574],< 100
6,O=c1ccc(-c2ccc(CCN3CCCCC3)c(C(F)(F)F)c2)n[nH]1 [YHHU-575],< 100
7,CCOc1ccc(-c2ccc(=O)[nH]n2)cc1C(F)(F)F [YHHU-578],< 100
8,O=c1ccc(-c2ccc(OCCBr)c(C(F)(F)F)c2)n[nH]1 [YHHU-579],< 100
9,O=c1ccc(-c2ccc(O)c(C(F)(F)F)c2)n[nH]1 [YHHU-580],< 100
10,Cc1ccc(-c2ccc(=O)[nH]n2)cc1C(F)(F)F [YHHU-581],< 100
11,O=c1ccc(-c2ccc(OCCOCCO)c(C(F)(F)F)c2)n[nH]1 [YHHU-582],< 100
12,O=c1ccc(-c2ccc(CCN3CCOCC3)c(C(F)(F)F)c2)n[nH]1 [YHHU-585],< 100
13,O=c1ccc(-c2ccc(OCCC(F)(F)F)c(C(F)(F)F)c2)n[nH]1 [YHHU-586],< 100
14,CCSc1ccc(-c2ccc(=O)[nH]n2)cc1C(F)(F)F [YHHU-589],< 100
15,CN1CCCC(COc2ccc(-c3ccc(=O)[nH]n3)cc2C(F)(F)F)C1 (stereo not shown) [YHHU-590],< 100
16,O=c1ccc(-c2ccc(OC34CC5CCC(C3)C(C5)C4)c(C(F)(F)F)c2)n[nH]1 (stereo not shown) [YHHU-592],< 100
17,CC1CCC(C(C)C)C(Oc2ccc(-c3ccc(=O)[nH]n3)cc2C(F)(F)F)C1 (stereo not shown) [YHHU-595],< 100
18,CC(Oc1ccc(-c2ccc(=O)[nH]n2)cc1C(F)(F)F)N1CCCCC1 (stereo not shown) [YHHU-597],< 100
19,O=c1ccc(-c2ccc(OC3CCCCCC3)c(C(F)(F)F)c2)n[nH]1 [YHHU-598],< 100
20,CN(C)c1ccc(-c2ccc(=O)[nH]n2)cc1C(F)(F)F [YHHU-647],< 10
21,O=c1ccc(-c2ccc(Nc3ccccc3)c(C(F)(F)F)c2)n[nH]1 [YHHU-658],< 100
22,O=c1ccc(-c2ccc(NCc3ccccc3)c(C(F)(F)F)c2)n[nH]1 [YHHU-659],< 100
23,O=C(O)[C@@H]1CC(O)CN1c1ccc(-c2ccc(=O)[nH]n2)cc1C(F)(F)F (stereo partly shown) [YHHU-666],< 1000
24,O=C1CCCN1c1ccc(-c2ccc(=O)[nH]n2)cc1C(F)(F)F [YHHU-667],< 100
25,O=C1CSC(=S)N1c1ccc(-c2ccc(=O)[nH]n2)cc1C(F)(F)F [YHHU-668],< 1000
26,C[C@@H]1CN(c2ccc(-c3ccc(=O)[nH]n3)cc2C(F)(F)F)C[C@H](C)O1 [YHHU-669],< 10

row,Structure (SMILES),IC50 [nM]
1,O=c1ccc(-c2ccc(N3CCSC3)c(C(F)(F)F)c2)n[nH]1 [YHHU-670],< 1000
2,CCOC(=O)C1CCCN(c2ccc(-c3ccc(=O)[nH]n3)cc2C(F)(F)F)C1 (stereo not shown) [YHHU-671],< 10
3,O=C1CCN(c2ccc(-c3ccc(=O)[nH]n3)cc2C(F)(F)F)CC1 [YHHU-672],< 100
4,O=C1CCC(=O)N1c1ccc(-c2ccc(=O)[nH]n2)cc1C(F)(F)F [YHHU-673],< 1000
5,O=C1CSC(=O)N1c1ccc(-c2ccc(=O)[nH]n2)cc1C(F)(F)F [YHHU-674],< 1000
6,C[C@H]1CN(c2ccc(-c3ccc(=O)[nH]n3)cc2C(F)(F)F)CCN1 [YHHU-675],< 10
7,CN(C)[C@H]1CCN(c2ccc(-c3ccc(=O)[nH]n3)cc2C(F)(F)F)C1 [YHHU-676],< 10
8,O=c1ccc(-c2ccc(N3CCNCC3)c(C(F)(F)F)c2)n[nH]1 [YHHU-677],< 100
9,CC(C)(C)OC(=O)N1CCN(c2ccc(-c3ccc(=O)[nH]n3)cc2C(F)(F)F)CC1 [YHHU-678],< 10
10,O=c1ccc(-c2ccc(N3CCC(CCO)CC3)c(C(F)(F)F)c2)n[nH]1 [YHHU-679],< 100
11,CN(CCO)c1ccc(-c2ccc(=O)[nH]n2)cc1C(F)(F)F [YHHU-681],< 1000
12,C[C@@H]1CN(c2ccc(-c3ccc(=O)[nH]n3)cc2C(F)(F)F)CCN1 [YHHU-682],< 10
13,CN(C)[C@@H]1CCN(c2ccc(-c3ccc(=O)[nH]n3)cc2C(F)(F)F)C1 [YHHU-683],< 100
14,O=c1ccc(-c2ccc(N3CCN(CCO)CC3)c(C(F)(F)F)c2)n[nH]1 [YHHU-685],< 10
15,CC(C)N(c1ccc(-c2ccc(=O)[nH]n2)cc1C(F)(F)F)C(C)C [YHHU-688],< 10
16,O=c1ccc(-c2ccc(NC3CCCC3)c(C(F)(F)F)c2)n[nH]1 [YHHU-689],< 100
17,CCOC(=O)C1CCN(c2ccc(-c3ccc(=O)[nH]n3)cc2C(F)(F)F)CC1 [YHHU-693],< 100
18,CSc1ccc(-c2ccc(=O)[nH]n2)cc1C(F)(F)F [YHHU-694],< 100
19,O=c1ccc(-c2ccc(NCC3CCCCC3)c(C(F)(F)F)c2)n[nH]1 [YHHU-696],< 100
20,O=c1ccc(-c2ccc(SCCO)c(C(F)(F)F)c2)n[nH]1 [YHHU-700],< 10000
21,CN(C)Cc1ccc(-c2ccc(=O)[nH]n2)cc1C(F)(F)F [YHHU-701],< 10
22,O=c1ccc(-c2ccc(C#Cc3ccc(C(F)(F)F)cc3)c(C(F)(F)F)c2)n[nH]1 [YHHU-702],< 10000
23,O=c1ccc(-c2ccc(-c3ccccc3)c(C(F)(F)F)c2)n[nH]1 [YHHU-703],< 10000
24,O=c1ccc(-c2ccc(-n3ccnc3)c(C(F)(F)F)c2)n[nH]1 [YHHU-706],< 10000
25,O=c1ccc(-c2ccc(OC(F)(F)F)c(C(F)(F)F)c2)n[nH]1 [YHHU-707],< 10000
26,O=c1ccc(-c2ccc(-c3cccnc3)c(C(F)(F)F)c2)n[nH]1 [YHHU-709],< 10000

row,Structure (SMILES),IC50 [nM]
1,O=c1ccc(-c2ccc(C(F)(F)F)c(C(F)(F)F)c2)n[nH]1 [YHHU-710],< 10000
2,O=c1ccc(-c2ccc(NC3CCC(O)CC3)c(C(F)(F)F)c2)n[nH]1 (stereo not shown) [YHHU-711],< 1000
3,O=c1ccc(-c2ccc(NC3CCCC(O)C3)c(C(F)(F)F)c2)n[nH]1 (stereo not shown) [YHHU-712],< 1000
4,O=c1ccc(-c2ccc(OCC3CC3)c(C(F)(F)F)c2)n[nH]1 [YHHU-713],< 1000
5,O=c1ccc(-c2ccc(OCc3ccccc3)c(C(F)(F)F)c2)n[nH]1 [YHHU-714],< 10000
6,O=c1ccc(-c2ccc(NC3CCCCC3O)c(C(F)(F)F)c2)n[nH]1 (stereo not shown) [YHHU-716],< 10000
7,Cc1ccc(Sc2ccc(-c3ccc(=O)[nH]n3)cc2C(F)(F)F)cc1 [YHHU-717],> 1000
8,O=c1ccc(-c2ccc(N3CC4CCCC4C3)c(C(F)(F)F)c2)n[nH]1 (stereo not shown) [YHHU-718],< 10000
9,CN(C)CCNc1ccc(-c2ccc(=O)[nH]n2)cc1C(F)(F)F [YHHU-745],> 1000
10,CN(C)CCN(C)c1ccc(-c2ccc(=O)[nH]n2)cc1C(F)(F)F [YHHU-746],> 1000
11,O=c1ccc(-c2ccc(N3CCCCCC3)c(C(F)(F)F)c2)n[nH]1 [YHHU-747],< 10
12,CC(O)C1CCN(c2ccc(-c3ccc(=O)[nH]n3)cc2C(F)(F)F)CC1 (stereo not shown) [YHHU-751],< 10
13,O=c1ccc(-c2ccc(N3CC(O)C3)c(C(F)(F)F)c2)n[nH]1 [YHHU-752],< 100
14,O=c1ccc(-c2ccc(N3CCCC(O)C3)c(C(F)(F)F)c2)n[nH]1 (stereo not shown) [YHHU-753],< 100
15,CNc1ccc(-c2ccc(=O)[nH]n2)cc1C(F)(F)F [YHHU-758],< 10
16,O=c1ccc(-c2ccc(NCCO)c(C(F)(F)F)c2)n[nH]1 [YHHU-760],> 100
17,CC(C)Nc1ccc(-c2ccc(=O)[nH]n2)cc1C(F)(F)F [YHHU-761],< 10
18,O=c1ccc(-c2ccc(N3CCCCC3CO)c(C(F)(F)F)c2)n[nH]1 (stereo not shown) [YHHU-763],< 100
19,O=C(O)C1CCCN(c2ccc(-c3ccc(=O)[nH]n3)cc2C(F)(F)F)C1 (stereo not shown) [YHHU-765],< 100
20,O=c1ccc(-c2ccc(N3CCC(O)C3)c(C(F)(F)F)c2)n[nH]1 (stereo not shown) [YHHU-766],< 100
21,CCOC(=O)C1CCCN1c1ccc(-c2ccc(=O)[nH]n2)cc1C(F)(F)F (stereo not shown) [YHHU-768],< 100
22,CCOC(=O)CCNc1ccc(-c2ccc(=O)[nH]n2)cc1C(F)(F)F [YHHU-769],< 1000
23,O=c1ccc(-c2ccc(OCCN3CCCC3)c(C(F)(F)F)c2)n[nH]1 [YHHU-770],< 100
24,CC(C)CCOc1ccc(-c2ccc(=O)[nH]n2)cc1C(F)(F)F [YHHU-772],< 100
